From paper PMC3104124 (Journal of molecular biology, 2011)

Biological target: T1, Ste2p (wild type, C-terminally truncated) (Saccharomyces cerevisiae, UniProt D6VTK4)
T1 sequence (D6VTK4 1-304): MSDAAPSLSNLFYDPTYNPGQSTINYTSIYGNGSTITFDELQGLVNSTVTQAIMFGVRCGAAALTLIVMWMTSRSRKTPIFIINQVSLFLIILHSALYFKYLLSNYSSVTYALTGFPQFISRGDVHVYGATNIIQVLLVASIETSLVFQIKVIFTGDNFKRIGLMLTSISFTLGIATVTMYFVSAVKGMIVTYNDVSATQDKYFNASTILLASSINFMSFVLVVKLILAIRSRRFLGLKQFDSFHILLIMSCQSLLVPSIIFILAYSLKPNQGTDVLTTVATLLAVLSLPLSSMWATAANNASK
Experiment: Fluorescent ligand binding
Details: FL1/FL2 emission of the ligand labeled with NBD at Lys7, bound to normal Ste2p; normalised to [Lys^7(NBD),Nle^12]α-factor

Row | Substance | Relative Bmax Ratio
1 | [desTrp^1,desHis^2,Nle^12]α-factor | 0.42 ± 0.05
2 | [des-Trp^1,Ala^3,Nle^12]α-factor | 0.49 ± 0.03
